Measurements: patent US20260042731A1, “(2,4-DICHLOROPHENOXY)ACETIC ACID ANALOGS” (CORTEVA AGRISCIENCE LLC, priority 2022, published 2026)
Where two headings read alike, the source gives them in different places.

Assays:
[1] = Volatility of compounds measured by thermogravimetric analysis (TGA); format: physicochemical
[2] = system: Abutilon theophrasti (ABUTH), velvetleaf; test: Postemergence herbicide evaluation, growth of Abutilon theophrasti (ABUTH); format: in vivo; settings: Abutilon theophrasti, post-emergence, percent reduction in plant size relative to untreated control, read-out: AVE. ABUTH; for pest or weed control at 280 g/ha: 280 g ae/ha; for pest or weed control at 560 g/ha: 560 g ae/ha
[3] = system: Amaranthus rudis (AMATA), tall water hemp; test: Postemergence herbicide evaluation, growth of Amaranthus rudis (AMATA); format: in vivo; settings: Amaranthus tuberculatus, post-emergence, percent reduction in plant size relative to untreated control, read-out: Ave. AMATA; for pest or weed control at 280 g/ha: 280 g ae/ha; for pest or weed control at 560 g/ha: 560 g ae/ha
[4] = system: weeds (ABUTH, AMATA, AMBEL, CHEAL, ERICA); test: Postemergence herbicide evaluation, overall average % weed control across ABUTH, AMATA, AMBEL, CHEAL, ERICA; format: in vivo; settings: post-emergence, average over the five weeds, read-out: Overall Ave % Weed Control; for pest or weed control at 280 g/ha: 280 g ae/ha; for pest or weed control at 560 g/ha: 560 g ae/ha
[5] = system: Chenopodium album (CHEAL), common lambsquarters; test: Postemergence herbicide evaluation, growth of Chenopodium album (CHEAL); format: in vivo; settings: Chenopodium album, post-emergence, percent reduction in plant size relative to untreated control, read-out: Ave. CHEAL; for pest or weed control at 280 g/ha: 280 g ae/ha; for pest or weed control at 560 g/ha: 560 g ae/ha
[6] = system: Ambrosia artemisiifolia (AMBEL), common ragweed; test: Postemergence herbicide evaluation, growth of Ambrosia artemisiifolia (AMBEL); format: in vivo; settings: Ambrosia artemisiifolia, post-emergence, percent reduction in plant size relative to untreated control, read-out: AVE. AMBEL; for pest or weed control at 280 g/ha: 280 g ae/ha; for pest or weed control at 560 g/ha: 560 g ae/ha
[7] = system: glyphosate resistant Conyza canadensis (L.) (ERICA), horseweed; test: Postemergence herbicide evaluation, growth of Conyza canadensis (ERICA); format: in vivo; settings: Erigeron canadensis, post-emergence, percent reduction in plant size relative to untreated control, read-out: Ave. ERICA; for pest or weed control at 280 g/ha: 280 g ae/ha; for pest or weed control at 560 g/ha: 560 g ae/ha

Compound	TGA Data (rate of weight loss, volatility) [1]	pest or weed control at 280 g/ha ([2]; 168 h, 7 DAA)	pest or weed control at 560 g/ha ([2]; 168 h, 7 DAA)	pest or weed control at 280 g/ha ([2]; 336 h, 14 DAA)	pest or weed control at 560 g/ha ([2]; 336 h, 14 DAA)	pest or weed control at 280 g/ha ([2]; 504 h, 21 DAA)	pest or weed control at 560 g/ha ([2]; 504 h, 21 DAA)	pest or weed control at 280 g/ha ([3]; 168 h, 7 DAA)	pest or weed control at 560 g/ha ([3]; 168 h, 7 DAA)	pest or weed control at 280 g/ha ([3]; 336 h, 14 DAA)	pest or weed control at 560 g/ha ([3]; 336 h, 14 DAA)	pest or weed control at 280 g/ha ([3]; 504 h, 21 DAA)	pest or weed control at 560 g/ha ([3]; 504 h, 21 DAA)	pest or weed control at 280 g/ha ([4]; 168 h, 7 DAA)	pest or weed control at 560 g/ha ([4]; 168 h, 7 DAA)	pest or weed control at 280 g/ha ([4]; 336 h, 14 DAA)	pest or weed control at 560 g/ha ([4]; 336 h, 14 DAA)	pest or weed control at 280 g/ha ([4]; 504 h, 21 DAA)	pest or weed control at 560 g/ha ([4]; 504 h, 21 DAA)	pest or weed control at 280 g/ha ([5]; 168 h, 7 DAA)	further results
C/C(N)=N/OC(=O)COc1ccc(Cl)cc1Cl [Compound A12, N′-(2-(2,4-Dichlorophenoxy)acetoxy)acetimidamide]	5.8 µg/min	85%	93%	90%	97%	96%	99%	75%	78%	97%	83%	86%	88%	72%	76%	88%	89%	93%	92%	68%	pest or weed control at 560 g/ha ([5]; 168 h, 7 DAA): 68%; pest or weed control at 280 g/ha ([5]; 336 h, 14 DAA): 80%; pest or weed control at 560 g/ha ([5]; 336 h, 14 DAA): 78%; pest or weed control at 280 g/ha ([5]; 504 h, 21 DAA): 86%; pest or weed control at 560 g/ha ([5]; 504 h, 21 DAA): 80%; pest or weed control at 280 g/ha ([6]; 168 h, 7 DAA): 65%; pest or weed control at 560 g/ha ([6]; 168 h, 7 DAA): 75%; pest or weed control at 280 g/ha ([6]; 336 h, 14 DAA): 83%; pest or weed control at 560 g/ha ([6]; 336 h, 14 DAA): 96%; pest or weed control at 280 g/ha ([6]; 504 h, 21 DAA): 97%; pest or weed control at 560 g/ha ([6]; 504 h, 21 DAA): 99%; pest or weed control at 280 g/ha ([7]; 168 h, 7 DAA): 65%; pest or weed control at 560 g/ha ([7]; 168 h, 7 DAA): 68%; pest or weed control at 280 g/ha ([7]; 336 h, 14 DAA): 90%; pest or weed control at 560 g/ha ([7]; 336 h, 14 DAA): 91%; pest or weed control at 280 g/ha ([7]; 504 h, 21 DAA): 99%; pest or weed control at 560 g/ha ([7]; 504 h, 21 DAA): 97%
O=C(Cc1ccccc1)NOC(=O)COc1ccc(Cl)cc1Cl [Compound A13, N-(2-(2,4-dichlorophenoxy)acetoxy)-2-phenylacetamide]	1.2 µg/min	68%	80%	70%	85%	75%	93%	75%	70%	80%	74%	91%	70%	67%	70%	76%	85%	82%	90%	68%	pest or weed control at 560 g/ha ([5]; 168 h, 7 DAA): 65%; pest or weed control at 280 g/ha ([5]; 336 h, 14 DAA): 68%; pest or weed control at 560 g/ha ([5]; 336 h, 14 DAA): 78%; pest or weed control at 280 g/ha ([5]; 504 h, 21 DAA): 73%; pest or weed control at 560 g/ha ([5]; 504 h, 21 DAA): 91%; pest or weed control at 280 g/ha ([6]; 168 h, 7 DAA): 65%; pest or weed control at 560 g/ha ([6]; 168 h, 7 DAA): 70%; pest or weed control at 280 g/ha ([6]; 336 h, 14 DAA): 85%; pest or weed control at 560 g/ha ([6]; 336 h, 14 DAA): 94%; pest or weed control at 280 g/ha ([6]; 504 h, 21 DAA): 90%; pest or weed control at 560 g/ha ([6]; 504 h, 21 DAA): 97%; pest or weed control at 280 g/ha ([7]; 168 h, 7 DAA): 60%; pest or weed control at 560 g/ha ([7]; 168 h, 7 DAA): 65%; pest or weed control at 280 g/ha ([7]; 336 h, 14 DAA): 78%; pest or weed control at 560 g/ha ([7]; 336 h, 14 DAA): 97%; pest or weed control at 280 g/ha ([7]; 504 h, 21 DAA): 83%; pest or weed control at 560 g/ha ([7]; 504 h, 21 DAA): 99%
